Assay results reported in publication PMC8001783, “New Lignanamides with Antioxidant and Anti-Inflammatory Activities Screened Out and Identified from Warburgia ugandensis Combining Affinity Ultrafiltration LC-MS with SOD and XOD Enzymes” (Antioxidants, 2021).
“And” between values parts separate entries of the source, which are not always exact repeats. Identical values can stand only once. Marks after values point to notes of the source that are not given here.

How the values were obtained:
[1] = tested on: xanthine oxidase (XOD); experiment: Affinity ultrafiltration LC-MS/MS with XOD (relative binding affinity); parameters: key: -: No binding affinity; conditions: peaks of WUE-A4, XOD 2 U, 37 °C 1 h, n = 3
Experimental: (§1) The experimental conditions were proposed according to previous relevant studies. Briefly, the optimized experiment was composed of three steps. Incubation was the first step, where 100 μL WUE-A4 (10.0 mg/mL), 10 µL SOD (2 U) or XOD (2 U), and 90 µL Tris-HCl (pH = 7.8) were mixed well in 1.5 mL EP tubes, and then incubated at 37 °C in the dark for 1 h. Meanwhile, the incubation operations of inactivated enzymes (inactivated enzymes were obtained by heating enzymes in a 99 °C water bath for 10 min) were the same as the active enzymes. Adsorption was the second step, where the incubated solutions were transferred to ultrafiltration tubes with 30 KDa (for SOD) or 10 KDa (for XOD) ultrafiltration membranes and then centrifuged at 10,000 rpm for 10 min at 25 °C. Simultaneously, components which had no binding affinity to enzymes were washed out. Immediately, 300 µL of Tris-HCl solution (pH = 7.8) was added to the ultrafiltration tubes and centrifuged at 10,000 rpm for 5 min at 25 °C to remove the potential unbound components. Desorption was the third step, where 300 µL of 90% (v/v) MeOH-H2O was added and incubated for 10 min at room temperature, and the mixed solutions were centrifuged at 10,000 rpm for another 10 min at 25 °C. After that, the desorption process was repeated two times to release those components with specific bindings to SOD or XOD from the enzyme-ligand complexes. Finally, those ultrafiltrates were dried and reconstituted in 50 µL MeOH for the HPLC-UV/ESI-MS/MS analysis.
(§2) HPLC-UV/ESI-MS/MS was carried out to characterize the components in WUE-A4 before and after ultrafiltration by using a Thermo Accela 600 series HPLC connected with a TSQ Quantum Access MAX mass spectrometer (Thermo Fisher Scientific, San Jose, CA, USA). A Waters Symmetry RP-C18 column (4.6 × 250 mm, 5 µm) was used to perform chromatographic analysis at 30 °C, and the mobile phase consisted of H2O with 0.1% formic acid (A) and ACN (B). The optimized HPLC elution procedures were as follows: 0–15 min, 17% B; 15–40 min, 17–30% B, 40–42 min: 30–56% B. The flow rate was 0.8 mL/min, the injection volume was 10 µL, and the HPLC-UV chromatograms were detected at a wavelength of 254 nm. The negative ion modes were applied to obtained ESI-MS/MS data. Moreover, the parameters of instrument were set as follows: the vaporizer temperature was 350 °C, the capillary temperature was 250 °C, the spray voltage was 3000 V, the cone voltage energy was 40 V, the collision energy was 10 V, the sheath gas pressure was 40 psi, the aux gas pressure was 10 psi, the drying gas flow rate was 6.0 L/min, and the mass range was set from 50 to 1100 (m/z) in the full-scan mode. Finally, the Thermo Xcalibur ChemStation (Thermo Fisher Scientific) was used for data acquisition and analysis.
(§3) For further evaluation of the affinity binding strength between the potential ligands and the target enzymes, the relative binding affinity (RBA) was employed to compare the variation of the correlated peak areas in the UF-HPLC-UV chromatograms before and after activation. The RBA formula is expressed as RBA = Aactive/Ainactivated, where the Aactive and Ainactivated represent the peak areas obtained from the WUE-A4 samples with activated and inactivated SOD or XOD, respectively.

[2] = tested on: superoxide dismutase (SOD); experiment: Affinity ultrafiltration LC-MS/MS with SOD (relative binding affinity); parameters: key: -: No binding affinity; conditions: peaks of WUE-A4, SOD 2 U, 37 °C 1 h, n = 3
Experimental: as §1, §2, §3

[3] = DPPH free radical scavenging assay; conditions: pure compounds; 30 min, 517 nm, n = 3
Experimental: The DPPH free radical scavenging activities of extracts and pure compounds from stem barks of W. ugandensis were tested according to previous studies with slight modifications. Firstly, 10 µL solutions of the samples, appropriately diluted with MeOH, were homogeneously mixed with 190 µL solution of DPPH (0.1 mM in MeOH) in a 96-well plate. Secondly, the mixtures were gently shaken and put at room temperature for 30 min in the darkness. Finally, the absorbance was recorded at 517 nm with multifunctional microplate reader. Trolox was used as positive control, and MeOH was used as blank control. Each of the samples and controls were tested in triplicate (n = 3). The antioxidant activities of DPPH were expressed as IC50 (concentration of samples caused 50% inhibition) and TEAC values. The TEAC values were calculated from the standard curve of Trolox and expressed as millimoles of Trolox equivalents per gram of sample (mmol TE/g). The inhibition of the DPPH radical was calculated according to the following formula:DPPH scavenging activity (%) = (1 − absorbance of sample/absorbance of blank control) × 100,(1) where DPPH scavenging activities (%) were plotted against the concentration of samples to obtain the IC50.

[4] = tested on: LPS-induced NO production in RAW 264.7 macrophages; parameters: method as in doi:10.5012/bkcs.2013.34.10.3105, PMID 29177586, PMID 31888376; conditions: cited from earlier work

| Molecule | UF-RBA XOD (relative binding affinity = Aactive/Ainactivated) [1] | UF-RBA XOD (relative binding affinity = Aactive/Ainactivated) ([1]; listed as peak 14) | UF-RBA SOD (relative binding affinity = Aactive/Ainactivated) [2] | UF-RBA SOD (relative binding affinity = Aactive/Ainactivated) ([2]; listed as peak 14) | IC50 [3] | UF-RBA XOD (relative binding affinity = Aactive/Ainactivated) ([1]; listed as peak 11) | UF-RBA SOD (relative binding affinity = Aactive/Ainactivated) ([2]; listed as peak 11) | UF-RBA SOD (relative binding affinity = Aactive/Ainactivated) ([2]; listed as peak 1) | inhibitory effect against LPS-induced NO production [4] |
| --- | --- | --- | --- | --- | --- | --- | --- | --- | --- |
| 1-(3,4-dihydroxy-5-methoxyphenyl)-1,2-dihydroxy-7,8-dihydroxy-N-[(3,4-dihydroxyphenyl)-ethyl]-N′-[(4-hydroxyphenyl)-ethyl]-6-methoxynaphthalene-2,3-dicarboxamide [compound 11] | - |  | - |  | 59.1 ± 4.1 µM | extremely low or no binding affinities | extremely low or no binding affinities |  |  |
| O=C(/C=C/c1ccc(O)c(O)c1)NCCc1ccc(O)cc1 [compound 7, N-trans-caffeoyltyramine] | 1.1 ± 0.3 ^c,d |  | 1.1 ± 0.3 ^e |  | 636 ± 290 µM |  |  |  | good inhibitory effects |
| C[C@@H]1O[C@@H](O[C@@H]2[C@@H](O)[C@H](O)[C@@H](CO)O[C@H]2c2cc(-c3cc(=O)c4c(O)cc(O)cc4o3)cc(O)c2O)[C@H](O)[C@H](O)[C@H]1O [compound 1, 2-[3-[2-O-(6-deoxy-α-L-mannopyranosyl)-β-D-glucopyranosyl]-4,5-dihydroxyphenyl]-5,7-dihydroxy-4H-1-benzopyran-4-one] | 1.2 ± 0.6 ^c,d |  | 1.9 ± 0.1 ^a,b,c |  | 25.8 ± 1.4 µM |  |  | 1.93 |  |

Now from value to molecule, other results behind:

| UF-RBA XOD (relative binding affinity = Aactive/Ainactivated) [1] | UF-RBA XOD (relative binding affinity = Aactive/Ainactivated) ([1]; listed as peak 14) | UF-RBA SOD (relative binding affinity = Aactive/Ainactivated) [2] | UF-RBA SOD (relative binding affinity = Aactive/Ainactivated) ([2]; listed as peak 14) | IC50 [3] | UF-RBA XOD (relative binding affinity = Aactive/Ainactivated) ([1]; listed as peak 11) | UF-RBA SOD (relative binding affinity = Aactive/Ainactivated) ([2]; listed as peak 11) | UF-RBA SOD (relative binding affinity = Aactive/Ainactivated) ([2]; listed as peak 1) | Molecule | inhibitory effect against LPS-induced NO production [4] |
| --- | --- | --- | --- | --- | --- | --- | --- | --- | --- |
| 3.8 ± 0.5 ^a | 3.76 | 1.5 ± 0.1 ^c,d,e | 1.51 | 6.41 µM and 6.4 µM |  |  |  | COc1cc(C2c3c(cc(O)c(O)c3OC)C=C(C(=O)NCCc3ccc(O)cc3)C2C(=O)NCCc2ccc(O)cc2)cc(O)c1O (stereo not drawn) [compound 14] |  |
| 1.3 ± 0.2 ^c,d |  | 1.3 ± 0.1 ^e |  | 115 ± 20.8 µM |  |  |  | COc1cc(C2c3c(cc(OC)c(O)c3O)C=C(C(=O)NCCc3ccc(O)cc3)C2C(=O)NCCc2ccc(O)cc2)cc(O)c1O (stereo not drawn) [compound 13] |  |
